Results published in patent US4826856A, “Calcium antagonistic dihydropyridine derivative” (Yason s.r.l., priority 1985, dated 1989).

Key:
Sprague-Dawley rats = experiment: Ventricular arrhythmias after re-circulation; type: in vivo, rat
Procedure: Ventricular arrhythmias after coronary artery ligation in the acute phase or during the period of re-circulation
Sprague-Dawley rats were subjected to ligation of the left coronary artery according to the method of Clark et al. in J. Pharmacol. Methods 3, 357-368, 1980. The drugs were administered by gastric tube 30 minutes before the ligation. By means of a continuous electrocardiographic recording, the ventricular arrhythmias such as ectopic beats (EB), ventricular tachycardia (VT), ventricular fibrillation (VF) for 30 minutes after ligation, were recorded.

[1] = Acute toxicity in the rat; conditions: in vivo
Excerpt: The acute toxicity of YS 201 given by intraveous route, similar in the males and in the females in the rat as well as in the mouse, is as follows:
The acute toxicity of YS 201 given by oral route, similar in the males and in the females in the rat as well as in the mouse, is as follows: […]

SHR-SP = experiment: Effect on blood pressure in 6 month old SHR-SP (intraduodenal); type: in vivo, rat; set-up: DBP (dyastolic blood pressure) / MBP (mean blood pressure) / SBP (systolic blood pressure) / S-D (difference between systolic and diastolic blood pressure): unit not given here; conditions: 15 mg/kg intraduodenal
Excerpt: Comparative effect of YS 201 on 3 month old rats and 6 month old SHR-SP

CCOC(=O)C1=C(C)NC(C)=C(C(=O)OCCN2CCCCC2)C1c1cccc([N+](=O)[O-])c1 (stereo not drawn) [YS 201, ethyl-(β-piperidinoethyl)-2,6-dimethyl-4-(3-nitrophenyl)-1,4-dihydropyridine-3,5-dicarboxylate]
Death rate % (Sprague-Dawley rats; 7.5 mg/kg p.o.): 10% | EBs, mean value of indices + SEM (Sprague-Dawley rats; 7.5 mg/kg p.o.): 42.8 ± 10.08 | VF % (Sprague-Dawley rats; 7.5 mg/kg p.o.): 60% | VF, mean value of indices + SEM (Sprague-Dawley rats; 7.5 mg/kg p.o.): 1.3 ± 0.52 | VT, mean value of indices + SEM (Sprague-Dawley rats; 7.5 mg/kg p.o.): 2.2 ± 1.70 | Death rate % (Sprague-Dawley rats; 15 mg/kg p.o.): 0% | EBs, mean value of indices + SEM (Sprague-Dawley rats; 15 mg/kg p.o.): 27.20 ± 5.87 | VF % (Sprague-Dawley rats; 15 mg/kg p.o.): 50% | VF, mean value of indices + SEM (Sprague-Dawley rats; 15 mg/kg p.o.): 0.6 ± 0.33 | VT, mean value of indices + SEM (Sprague-Dawley rats; 15 mg/kg p.o.): 1.2 ± 0.39 | LD50 ([1]; iv): 12.5 mg/kg | LD50 ([1]; po): 402 mg/kg | duration of blood pressure effect (SHR-SP): 4 h | DBP (dyastolic blood pressure) (SHR-SP; 0 min (baseline)): 17.5 | HR (heart rate) (SHR-SP; 0 min (baseline)): 360 beats/min | MBP (mean blood pressure) (SHR-SP; 0 min (baseline)): 20.0 | S-D (difference between systolic and diastolic blood pressure) (SHR-SP; 0 min (baseline)): 7.5 | SBP (systolic blood pressure) (SHR-SP; 0 min (baseline)): 25.0 | DBP (dyastolic blood pressure) (SHR-SP; +1 min): 17.0 | HR (heart rate) (SHR-SP; +1 min): 360 beats/min | MBP (mean blood pressure) (SHR-SP; +1 min): 19.3 | S-D (difference between systolic and diastolic blood pressure) (SHR-SP; +1 min): 7.0 | SBP (systolic blood pressure) (SHR-SP; +1 min): 24.0 | DBP (dyastolic blood pressure) (SHR-SP; +2 min): 15.0 | HR (heart rate) (SHR-SP; +2 min): 360 beats/min | MBP (mean blood pressure) (SHR-SP; +2 min): 17.5 | S-D (difference between systolic and diastolic blood pressure) (SHR-SP; +2 min): 7.5 | SBP (systolic blood pressure) (SHR-SP; +2 min): 22.5 | DBP (dyastolic blood pressure) (SHR-SP; +5 min): 16.0 | HR (heart rate) (SHR-SP; +5 min): 360 beats/min | MBP (mean blood pressure) (SHR-SP; +5 min): 18.7 | S-D (difference between systolic and diastolic blood pressure) (SHR-SP; +5 min): 8.0 | SBP (systolic blood pressure) (SHR-SP; +5 min): 24.0 | DBP (dyastolic blood pressure) (SHR-SP; +10 min): 13.5 | HR (heart rate) (SHR-SP; +10 min): 360 beats/min | MBP (mean blood pressure) (SHR-SP; +10 min): 16.2 | S-D (difference between systolic and diastolic blood pressure) (SHR-SP; +10 min): 8.0 | SBP (systolic blood pressure) (SHR-SP; +10 min): 21.5 | DBP (dyastolic blood pressure) (SHR-SP; +15 min): 13.0 | HR (heart rate) (SHR-SP; +15 min): 360 beats/min | MBP (mean blood pressure) (SHR-SP; +15 min): 15.7 | S-D (difference between systolic and diastolic blood pressure) (SHR-SP; +15 min): 8.0 | SBP (systolic blood pressure) (SHR-SP; +15 min): 21.0 | DBP (dyastolic blood pressure) (SHR-SP; +30 min): 11.0 | HR (heart rate) (SHR-SP; +30 min): 340 beats/min | MBP (mean blood pressure) (SHR-SP; +30 min): 13.7 | S-D (difference between systolic and diastolic blood pressure) (SHR-SP; +30 min): 8.0 | SBP (systolic blood pressure) (SHR-SP; +30 min): 19.0 | DBP (dyastolic blood pressure) (SHR-SP; +60 min): 10.0 | HR (heart rate) (SHR-SP; +60 min): 300 beats/min | MBP (mean blood pressure) (SHR-SP; +60 min): 12.0 | S-D (difference between systolic and diastolic blood pressure) (SHR-SP; +60 min): 7.0 | SBP (systolic blood pressure) (SHR-SP; +60 min): 17.0 | DBP (dyastolic blood pressure) (SHR-SP; +120 min): 11.5 | HR (heart rate) (SHR-SP; +120 min): 360 beats/min | MBP (mean blood pressure) (SHR-SP; +120 min): 13.5 | S-D (difference between systolic and diastolic blood pressure) (SHR-SP; +120 min): 6.0 | SBP (systolic blood pressure) (SHR-SP; +120 min): 17.5 | DBP (dyastolic blood pressure) (SHR-SP; +180 min): 8.0 | HR (heart rate) (SHR-SP; +180 min): 400 beats/min | MBP (mean blood pressure) (SHR-SP; +180 min): 9.8 | S-D (difference between systolic and diastolic blood pressure) (SHR-SP; +180 min): 5.5 | SBP (systolic blood pressure) (SHR-SP; +180 min): 13.5 | DBP (dyastolic blood pressure) (SHR-SP; +240 min): 6.0 | HR (heart rate) (SHR-SP; +240 min): 420 beats/min | MBP (mean blood pressure) (SHR-SP; +240 min): 7.5 | S-D (difference between systolic and diastolic blood pressure) (SHR-SP; +240 min): 4.5 | SBP (systolic blood pressure) (SHR-SP; +240 min): 10.5
